Measured values taken from PubChem BioAssay (NCI).
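Grown in 96-well plates, cells were treated for 48 hours with each compound at five concentrations. Insufficient inhibition: endpoint recorded as highest concentration tested. GI50: concentration for 50% inhibition of growth. TGI: total growth inhibition.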

How the values were obtained:
Assay in all cases: DTP human tumour cell line panel, 48 h
UACC-62 melanoma = system: UACC-62 melanoma
SF-539 CNS = system: SF-539 CNS
SF-268 CNS = system: SF-268 CNS
MALME-3M melanoma = system: MALME-3M melanoma
PC-3 prostate = system: PC-3 prostate
MOLT-4 leukemia = system: MOLT-4 leukemia
HT29 colon = system: HT29 colon
RXF 393 renal = system: RXF 393 renal
MDA-MB-435 = system: MDA-MB-435
CCRF-CEM leukemia = system: CCRF-CEM leukemia
HCT-116 colon = system: HCT-116 colon
CAKI-1 renal = system: CAKI-1 renal
MCF7 breast = system: MCF7 breast
BT-549 breast = system: BT-549 breast
SK-MEL-28 melanoma = system: SK-MEL-28 melanoma
EKVX NSCLC = system: EKVX NSCLC
UO-31 renal = system: UO-31 renal
K-562 leukemia = system: K-562 leukemia
SK-MEL-5 melanoma = system: SK-MEL-5 melanoma
COLO 205 colon = system: COLO 205 colon
HOP-62 NSCLC = system: HOP-62 NSCLC
M14 melanoma = system: M14 melanoma
HOP-92 NSCLC = system: HOP-92 NSCLC
TK-10 renal = system: TK-10 renal
RPMI-8226 leukemia = system: RPMI-8226 leukemia
NCI-H460 lung = system: NCI-H460 lung
HS 578T breast = system: HS 578T breast
SN12C renal = system: SN12C renal
SK-MEL-2 melanoma = system: SK-MEL-2 melanoma
IGROV1 ovarian = system: IGROV1 ovarian
NCI-H522 lung = system: NCI-H522 lung
OVCAR-4 ovarian = system: OVCAR-4 ovarian
DU-145 prostate = system: DU-145 prostate
786-0 renal = system: 786-0 renal
A549 NSCLC = system: A549 NSCLC
HCC-2998 colon = system: HCC-2998 colon
NCI-H226 lung = system: NCI-H226 lung
OVCAR-3 ovarian = system: OVCAR-3 ovarian
NCI-H23 lung = system: NCI-H23 lung
SW-620 colon = system: SW-620 colon
SNB-75 CNS = system: SNB-75 CNS
U251 CNS = system: U251 CNS
SNB-19 CNS = system: SNB-19 CNS
HL-60(TB) leukemia = system: HL-60(TB) leukemia
UACC-257 melanoma = system: UACC-257 melanoma
KM12 colon = system: KM12 colon
A498 renal = system: A498 renal
T-47D breast = system: T-47D breast
OVCAR-8 ovarian = system: OVCAR-8 ovarian
NCI/ADR-RES ovarian = system: NCI/ADR-RES ovarian
MDA-MB-231 breast = system: MDA-MB-231 breast
SK-OV-3 ovarian = system: SK-OV-3 ovarian
SF-295 CNS = system: SF-295 CNS
HCT-15 colon = system: HCT-15 colon
LOX IMVI melanoma = system: LOX IMVI melanoma
OVCAR-5 ovarian = system: OVCAR-5 ovarian
SR leukemia = system: SR leukemia
ACHN renal = system: ACHN renal

OCCn1cc(-c2cnc3nnn(Cc4ccc5ncccc5c4)c3n2)cn1
GI50 (UACC-62 melanoma): > 100 µM
TGI (UACC-62 melanoma): > 100 µM
GI50 (SF-539 CNS): > 100 µM
TGI (SF-539 CNS): > 100 µM
GI50 (SF-268 CNS): > 100 µM
TGI (SF-268 CNS): > 100 µM
GI50 (MALME-3M melanoma): > 100 µM
TGI (MALME-3M melanoma): > 100 µM
GI50 (PC-3 prostate): > 100 µM
TGI (PC-3 prostate): > 100 µM
GI50 (MOLT-4 leukemia): > 100 µM
TGI (MOLT-4 leukemia): > 100 µM
GI50 (HT29 colon): > 100 µM
TGI (HT29 colon): > 100 µM
GI50 (RXF 393 renal): > 100 µM
TGI (RXF 393 renal): > 100 µM
GI50 (MDA-MB-435): > 100 µM
TGI (MDA-MB-435): > 100 µM
GI50 (CCRF-CEM leukemia): > 100 µM
TGI (CCRF-CEM leukemia): > 100 µM
GI50 (HCT-116 colon): > 100 µM
TGI (HCT-116 colon): > 100 µM
GI50 (CAKI-1 renal): > 100 µM
TGI (CAKI-1 renal): > 100 µM
GI50 (MCF7 breast): > 100 µM
TGI (MCF7 breast): > 100 µM
GI50 (BT-549 breast): > 100 µM
TGI (BT-549 breast): > 100 µM
GI50 (SK-MEL-28 melanoma): > 100 µM
TGI (SK-MEL-28 melanoma): > 100 µM
GI50 (EKVX NSCLC): > 100 µM
TGI (EKVX NSCLC): > 100 µM
GI50 (UO-31 renal): > 100 µM
TGI (UO-31 renal): > 100 µM
GI50 (K-562 leukemia): > 100 µM
TGI (K-562 leukemia): > 100 µM
GI50 (SK-MEL-5 melanoma): > 100 µM
TGI (SK-MEL-5 melanoma): > 100 µM
GI50 (COLO 205 colon): > 100 µM
TGI (COLO 205 colon): > 100 µM
GI50 (HOP-62 NSCLC): > 100 µM
TGI (HOP-62 NSCLC): > 100 µM
GI50 (M14 melanoma): > 100 µM
TGI (M14 melanoma): > 100 µM
GI50 (HOP-92 NSCLC): 13 µM
TGI (HOP-92 NSCLC): > 100 µM
GI50 (TK-10 renal): > 100 µM
TGI (TK-10 renal): > 100 µM
GI50 (RPMI-8226 leukemia): > 100 µM
TGI (RPMI-8226 leukemia): > 100 µM
GI50 (NCI-H460 lung): > 100 µM
TGI (NCI-H460 lung): > 100 µM
GI50 (HS 578T breast): > 100 µM
TGI (HS 578T breast): > 100 µM
GI50 (SN12C renal): > 100 µM
TGI (SN12C renal): > 100 µM
GI50 (SK-MEL-2 melanoma): > 76.2 µM
TGI (SK-MEL-2 melanoma): > 100 µM
GI50 (IGROV1 ovarian): > 100 µM
TGI (IGROV1 ovarian): > 100 µM
GI50 (NCI-H522 lung): > 100 µM
TGI (NCI-H522 lung): > 100 µM
GI50 (OVCAR-4 ovarian): > 100 µM
TGI (OVCAR-4 ovarian): > 100 µM
GI50 (DU-145 prostate): > 100 µM
TGI (DU-145 prostate): > 100 µM
GI50 (786-0 renal): > 100 µM
TGI (786-0 renal): > 100 µM
GI50 (A549 NSCLC): > 100 µM
TGI (A549 NSCLC): > 100 µM
GI50 (HCC-2998 colon): > 100 µM
TGI (HCC-2998 colon): > 100 µM
GI50 (NCI-H226 lung): > 100 µM
TGI (NCI-H226 lung): > 100 µM
GI50 (OVCAR-3 ovarian): > 100 µM
TGI (OVCAR-3 ovarian): > 100 µM
GI50 (NCI-H23 lung): > 100 µM
TGI (NCI-H23 lung): > 100 µM
GI50 (SW-620 colon): > 100 µM
TGI (SW-620 colon): > 100 µM
GI50 (SNB-75 CNS): > 100 µM
TGI (SNB-75 CNS): > 100 µM
GI50 (U251 CNS): > 100 µM
TGI (U251 CNS): > 100 µM
GI50 (SNB-19 CNS): > 100 µM
TGI (SNB-19 CNS): > 100 µM
GI50 (HL-60(TB) leukemia): > 100 µM
TGI (HL-60(TB) leukemia): > 100 µM
GI50 (UACC-257 melanoma): > 100 µM
TGI (UACC-257 melanoma): > 100 µM
GI50 (KM12 colon): > 100 µM
TGI (KM12 colon): > 100 µM
GI50 (A498 renal): 34.3 µM
TGI (A498 renal): > 100 µM
GI50 (T-47D breast): > 100 µM
TGI (T-47D breast): > 100 µM
GI50 (OVCAR-8 ovarian): > 100 µM
TGI (OVCAR-8 ovarian): > 100 µM
GI50 (NCI/ADR-RES ovarian): > 100 µM
TGI (NCI/ADR-RES ovarian): > 100 µM
GI50 (MDA-MB-231 breast): > 100 µM
TGI (MDA-MB-231 breast): > 100 µM
GI50 (SK-OV-3 ovarian): > 100 µM
TGI (SK-OV-3 ovarian): > 100 µM
TGI (SF-295 CNS): > 100 µM
GI50 (HCT-15 colon): > 100 µM
TGI (HCT-15 colon): > 100 µM
GI50 (LOX IMVI melanoma): > 100 µM
TGI (LOX IMVI melanoma): > 100 µM
GI50 (OVCAR-5 ovarian): > 100 µM
TGI (OVCAR-5 ovarian): > 100 µM
GI50 (SR leukemia): > 100 µM
TGI (SR leukemia): > 100 µM
GI50 (ACHN renal): > 100 µM
TGI (ACHN renal): > 100 µM
